Laboratory results from patent US20230365546A1, “5-SUBSTITUTED INDOLE 3-AMIDE DERIVATIVES, PREPARATION METHOD AND USE THEREOF” (ORIGIANT PHARMACEUTICAL CO., LTD, priority 2020, published 2023).

Key:
RIPK1 = RIPK1 (Homo sapiens (Human), UniProt Q13546); assay: In vitro kinase assay (Eurofins Kinase Profiler), IC50; format: biochemical; conditions: 0.001-10 μM, read-out: RIPK 1 (IC50)
HT-29 cells = assay: Protection against programmed necrosis of HT-29 cells (TNF α/Smac mimetic/Z-VAD-FMK, CCK8); format: cell-based; conditions: Homo sapiens, TNF α/Smac mimetic/Z-VAD-FMK induced 24 h, CCK8, read-out: HT-29 (EC50)
Method: In vitro protection against programmed necrosis of HT-29 cells was conducted by ourselves.
DMEM medium was purchased from Gibco Inc., penicillin and streptomycin were purchased from HyClone Inc., TNF α was purchased from PeproTech Inc., Smac mimetic and Z-VAD-FMK were purchased from Selleck Inc., CCK8 was purchased from Medchem Express Inc.
HT-29 cells (colon cancer cells) were cultured in DMEM+10% FBS+Penicillin/Streptomycin medium. During the experiments, HT-29 cells in logarithmic growth phase were harvested, seeded in a 96-well plate at specific numbers per well (typically 8×10^3 cells/well of adherent cells) and cultured overnight in a 37° C., 5% CO2 cell culture incubator. The next day, the compounds to be tested were diluted with culture medium to the corresponding concentrations and added into the corresponding wells of a 96-well plate, with 3 replicate wells for each sample, and a Vehicle control group and a blank Control group containing only culture medium were set at the same time. […] The absorbance was measured at 495 nm wavelength using a microplate reader, and the protection rate of the drug on the cells necrosis was calculated according to the following formula:
Protection rate of cell necrosis=[(X−C0)/(C−C0)]×100%
Wherein, C, C0, and X represent the mean absorbance values of the Vehicle control group, Blank control group and Drug treatment group, respectively.

RIPK1, sequence (Q13546 whole entry): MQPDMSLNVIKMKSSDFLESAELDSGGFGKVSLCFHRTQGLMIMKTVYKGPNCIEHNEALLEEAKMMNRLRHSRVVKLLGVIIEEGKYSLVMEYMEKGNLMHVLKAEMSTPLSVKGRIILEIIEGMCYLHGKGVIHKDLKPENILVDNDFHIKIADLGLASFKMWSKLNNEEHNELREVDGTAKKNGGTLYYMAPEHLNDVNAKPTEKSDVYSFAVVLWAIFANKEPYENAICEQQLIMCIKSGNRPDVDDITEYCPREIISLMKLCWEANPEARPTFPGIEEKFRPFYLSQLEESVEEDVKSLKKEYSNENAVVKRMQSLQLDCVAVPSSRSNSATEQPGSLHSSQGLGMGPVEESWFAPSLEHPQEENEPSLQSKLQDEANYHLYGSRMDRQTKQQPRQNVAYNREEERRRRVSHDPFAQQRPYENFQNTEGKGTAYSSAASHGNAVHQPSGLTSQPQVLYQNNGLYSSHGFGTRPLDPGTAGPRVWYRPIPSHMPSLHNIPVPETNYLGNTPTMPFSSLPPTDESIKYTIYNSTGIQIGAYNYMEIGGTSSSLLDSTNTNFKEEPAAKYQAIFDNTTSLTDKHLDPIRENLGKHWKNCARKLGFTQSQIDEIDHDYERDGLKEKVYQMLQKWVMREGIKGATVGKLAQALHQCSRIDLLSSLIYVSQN

Compound	IC50 (RIPK1)	EC50 (HT-29 cells)
C[C@H](NC(=O)c1c[nH]c2ccc(-c3ccc4nc(NC(=O)C5CCCC5)sc4c3)cc12)c1cccc(F)c1 [Compound 48]	10 to 100 nM	1 to 10 nM
C[C@H](NC(=O)c1c[nH]c2ccc(-c3ccc4nc(NC(=O)C5CCCCC5)sc4c3)cc12)c1cccc(F)c1 [Compound 49]	10 to 100 nM	10 to 100 nM
C[C@H](NC(=O)c1c[nH]c2ccc(-c3ccc4nc(NC(=O)C(C)(C)C)sc4c3)cc12)c1cccc(F)c1 [Compound 50]	10 to 100 nM	10 to 100 nM
C[C@H](NC(=O)c1c[nH]c2ccc(-c3ccc4nc(NC(=O)C5CCOCC5)sc4c3)cc12)c1cccc(F)c1 [Compound 51]	10 to 100 nM	10 to 100 nM
C[C@H](NC(=O)c1c[nH]c2ccc(-c3ccc4nc(NC(=O)C(F)(F)F)sc4c3)cc12)c1cccc(F)c1 [Compound 52]	100 to 1000 nM	10 to 100 nM
C[C@H](NC(=O)c1c[nH]c2ccc(-c3ccc4nc(NC(=O)C5CCN(C)CC5)sc4c3)cc12)c1cccc(F)c1 [Compound 53]	100 to 1000 nM	100 to 1000 nM
Cn1cc(C(=O)NCc2cc(F)ccc2F)c2cc(-c3ccc4nc(NC(=O)C5CC5)sc4c3)ccc21 [Compound 54]	10 to 100 nM	< 1 nM
CC(C)C(=O)Nc1nc2ccc(-c3ccc4[nH]cc(C(=O)N[C@@H](C)c5cccc(F)c5)c4c3)cc2s1 [Compound 55]	10 to 100 nM	1 to 10 nM
CC(C)n1cc(C(=O)NCc2cc(F)ccc2F)c2cc(-c3ccc4nc(NC(=O)C5CC5)sc4c3)ccc21 [Compound 56]	10 to 100 nM	1 to 10 nM
CCCn1cc(C(=O)NCc2cc(F)ccc2F)c2cc(-c3ccc4nc(NC(=O)C5CC5)sc4c3)ccc21 [Compound 57]	100 to 1000 nM	10 to 100 nM
CCCCn1cc(C(=O)NCc2cc(F)ccc2F)c2cc(-c3ccc4nc(NC(=O)C5CC5)sc4c3)ccc21 [Compound 58]	100 to 1000 nM	100 to 1000 nM
C[C@H](NC(=O)c1n[nH]c2ccc(-c3ccc4nc(NC(=O)C5CC5)sc4c3)cc12)c1cccc(F)c1 [Compound 59]	10 to 100 nM	1 to 10 nM
COc1cc(F)ccc1NC(=O)c1c[nH]c2ncc(-c3ccc4nc(NC(=O)C5CC5)sc4c3)cc12 [Compound 60]	≥ 1000 nM	≥ 1000 nM
COc1cc(F)ccc1NC(=O)c1n[nH]c2ccc(-c3ccc4nc(NC(=O)C5CC5)sc4c3)cc12 [Compound 61]	≥ 1000 nM	≥ 1000 nM
C[C@H](NC(=O)c1c[nH]c2ncc(-c3ccc4nc(NC(=O)C5CC5)sc4c3)cc12)c1cccc(F)c1 [Compound 62]	100 to 1000 nM	1 to 10 nM
COc1ccc(NC(=O)c2c[nH]c3ncc(-c4ccc5nc(NC(=O)C6CC6)sc5c4)cc23)cc1OC [Compound 63]	10 to 100 nM	10 to 100 nM
COc1ccc(CNC(=O)c2c[nH]c3ncc(-c4ccc5nc(NC(=O)C6CC6)sc5c4)cc23)cc1OC [Compound 64]	100 to 1000 nM	10 to 100 nM
COc1ccc(CNC(=O)c2cn(C)c3ccc(-c4ccc5nc(NC(=O)C6CC6)sc5c4)cc23)cc1OC [Compound 65]	100 to 1000 nM	10 to 100 nM
Cn1cc(C(=O)N2CCN(Cc3ccc4c(c3)OCO4)CC2)c2cc(-c3ccc4nc(NC(=O)C5CC5)sc4c3)ccc21 [Compound 66]	≥ 1000 nM	≥ 1000 nM
COc1cc(CN2CCN(C(=O)c3cn(C)c4ccc(-c5ccc6nc(NC(=O)C7CC7)sc6c5)cc34)CC2)cc(OC)c1OC [Compound 67]	≥ 1000 nM	≥ 1000 nM
C[C@H](NC(=O)c1cn(C)c2ccc(-c3ccc(CN4CCN(C)CC4)cc3)cc12)c1cccc(F)c1 [Compound 68]	≥ 1000 nM	≥ 1000 nM
Cc1noc(C)c1-c1cnc2[nH]cc(C(=O)N[C@@H](C)c3cccc(F)c3)c2c1 [Compound 69]	≥ 1000 nM	≥ 1000 nM
C[C@H](NC(=O)c1cn(C)c2ccc(-c3ccc(C(=O)N4CCOCC4)cc3)cc12)c1cccc(F)c1 [Compound 70]	≥ 1000 nM	100 to 1000 nM
C[C@H](NC(=O)c1cn(C)c2ccc(-c3ccnn3C3CCCCO3)cc12)c1cccc(F)c1 (stereo partly shown) [Compound 71]	≥ 1000 nM	≥ 1000 nM

Compound	IC50 (RIPK1)	EC50 (HT-29 cells)
C[C@H](NC(=O)c1cn(C)c2ccc(-c3ccc(N4CCOCC4)cc3)cc12)c1cccc(F)c1 [Compound 72]	≥ 1000 nM	≥ 1000 nM
C[C@H](NC(=O)c1cn(C)c2ccc(-c3ccc(N4CCOCC4)nc3)cc12)c1cccc(F)c1 [Compound 73]	≥ 1000 nM	≥ 1000 nM
C[C@H](NC(=O)c1c[nH]c2ncc(-c3ccc(C(=O)N4CCOCC4)cc3)cc12)c1cccc(F)c1 [Compound 74]	100 to 1000 nM	100 to 1000 nM
C[C@H](NC(=O)c1c[nH]c2ncc(-c3ccnn3C3CCCCO3)cc12)c1cccc(F)c1 (stereo partly shown) [Compound 75]	≥ 1000 nM	100 to 1000 nM
C[C@H](NC(=O)c1c[nH]c2ncc(-c3ccc(N4CCOCC4)cc3)cc12)c1cccc(F)c1 [Compound 76]	100 to 1000 nM	100 to 1000 nM
C[C@H](NC(=O)c1c[nH]c2ncc(-c3ccc(N4CCOCC4)nc3)cc12)c1cccc(F)c1 [Compound 77]	100 to 1000 nM	100 to 1000 nM
C[C@H](NC(=O)c1cn(C)c2ccc(-c3cc[nH]n3)cc12)c1cccc(F)c1 [Compound 78]	≥ 1000 nM	100 to 1000 nM
Cn1cc(C(=O)NCc2ccc(F)cc2)c2cc(-c3ccc4nc(NC(=O)C5CC5)sc4c3)ccc21 [Compound 79]	100 to 1000 nM	10 to 100 nM
O=C(NCc1ccc(F)cc1F)c1c[nH]c2ncc(-c3ccc4nc(NC(=O)C5CC5)sc4c3)cc12 [Compound 80]	100 to 1000 nM	10 to 100 nM
C[C@H](NC(=O)c1c[nH]c2ccc(-c3ccc4nc(NC(=O)C5CC5)[nH]c4c3)cc12)c1cccc(F)c1 [Compound 81]	10 to 100 nM	100 to 1000 nM
C[C@H](NC(=O)c1c[nH]c2ccc(-c3ccn4nc(NC(=O)C5CC5)nc4c3)cc12)c1cccc(F)c1 [Compound 82]	10 to 100 nM	100 to 1000 nM
C[C@H](NC(=O)c1c[nH]c2ccc(-c3ccc4c(N)ncnn34)cc12)c1cccc(F)c1 [Compound 83]	100 to 1000 nM	100 to 1000 nM
Cc1noc(C)c1CNC(=O)c1c[nH]c2ccc(-c3ccc4nc(NC(=O)C5CC5)sc4c3)cc12 [Compound 84]	100 to 1000 nM	100 to 1000 nM
O=C(NCc1ccn[nH]1)c1c[nH]c2ccc(-c3ccc4nc(NC(=O)C5CC5)sc4c3)cc12 [Compound 85]	≥ 1000 nM	≥ 1000 nM
Cn1cc(CNC(=O)c2c[nH]c3ccc(-c4ccc5nc(NC(=O)C6CC6)sc5c4)cc23)cn1 [Compound 86]	≥ 1000 nM	≥ 1000 nM
O=C(NCc1ccc2[nH]ccc2c1)c1c[nH]c2ccc(-c3ccc4nc(NC(=O)C5CC5)sc4c3)cc12 [Compound 87]	≥ 1000 nM	≥ 1000 nM
C[C@H](NC(=O)c1c[nH]c2ccc(-c3ccc4nc(NC(=O)C5CC5)sc4n3)cc12)c1cccc(F)c1 [Compound 88]	10 to 100 nM	1 to 10 nM
C[C@H](NC(=O)c1cn(C)c2ccc(-c3ccc4nc(NC(=O)C5CC5)sc4n3)cc12)c1cccc(F)c1 [Compound 89]	10 to 100 nM	1 to 10 nM
COCC(=O)Nc1nc2ccc(-c3ccc4c(c3)c(C(=O)N[C@@H](C)c3cccc(F)c3)cn4C)nc2s1 [Compound 91]	100 to 1000 nM	100 to 1000 nM
COCC(=O)Nc1nc2ccc(-c3ccc4[nH]cc(C(=O)N[C@@H](C)c5cccc(F)c5)c4c3)cn2n1 [Compound 92]	100 to 1000 nM	100 to 1000 nM
O=C(NCc1ccc(N2CCOCC2)cc1)c1c[nH]c2ccc(-c3ccc4nc(NC(=O)C5CC5)sc4c3)cc12 [Compound 93]	≥ 1000 nM	≥ 1000 nM
COCC(=O)Nc1nc2ccc(-c3ccc4[nH]cc(C(=O)NCc5cccc(F)c5)c4c3)cn2n1 [Compound 95]	100 to 1000 nM	100 to 1000 nM
COCC(=O)Nc1nc2ccc(-c3ccc4c(c3)c(C(=O)N[C@@H](C)c3cccc(F)c3)cn4C)cn2n1 [Compound 96]	10 to 100 nM	10 to 100 nM
